26 compounds from patent publication US20220324865A1 (Bayer Aktiengesellschaft, priority 2018, published 2022) can be followed below.

Counter-ions that a name gives are not always drawn.

This test deals with T1, human EP3 receptor (Homo sapiens, UniProt P43115).
T1 construct: expressed in transfected cells; host or cells: CHO K1 (Chinese Hamster Ovary), stably co-transfected with Galpha16 and mitochondrial clytin
T1 sequence (P43115 1-390): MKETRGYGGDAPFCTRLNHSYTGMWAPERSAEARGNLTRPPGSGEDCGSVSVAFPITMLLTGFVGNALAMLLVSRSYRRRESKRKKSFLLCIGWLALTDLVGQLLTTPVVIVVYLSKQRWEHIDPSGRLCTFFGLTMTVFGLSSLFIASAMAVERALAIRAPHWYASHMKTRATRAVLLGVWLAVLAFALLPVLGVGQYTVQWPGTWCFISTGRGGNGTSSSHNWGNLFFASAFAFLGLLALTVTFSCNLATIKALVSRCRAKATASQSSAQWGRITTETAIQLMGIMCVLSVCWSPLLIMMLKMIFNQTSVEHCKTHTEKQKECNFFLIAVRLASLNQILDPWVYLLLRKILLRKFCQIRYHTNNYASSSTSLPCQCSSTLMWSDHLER
Put plainly: Cellular in vitro assay for determining EP3 receptor activity (human EP3 cell line, sulprostone-stimulated calcium luminescence). Type of test: cell-based. As to conditions: CHO cells expressing human EP3 and mitochondrial Clytin; antagonist mode, sulprostone at EC50; read-out: EP3 CHO mtCLY ANTAG IC50. An outline of the steps: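 Antagonist activity was measured as inhibition of the luminescent calcium signal elicited by EC50 sulprostone, following 10 min compound pretreatment. The cell line was recombinant CHO K1 co-expressing human EP3, Gα16 and the photoprotein Clytin, reconstituted with coelenterazine.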
For the compound `Cc1ccc(-c2cn3nc(C(=O)NC4(c5ccc(F)cc5)CN(C)C4)c(C4CC4)c3c(=O)[nH]2)cc1C` [Example 1-36, 3-Cyclopropyl-6-(3,4-dimethylphenyl)-N-[3-(4-fluorophenyl)-1-methylazetidin-3-yl]-4-oxo-4,5-dihydropyrazolo[1,5-a]pyrazine-2-carboxamide], the IC50 was determined as 2.19 nM.
The figure for `C[C@@H](NC(=O)c1nn2cc(-c3ccc4ccccc4c3)[nH]c(=O)c2c1C(F)(F)F)c1ccc(F)cc1` [Example 1-53, N-[(1R)-1-(4-Fluorophenyl)ethyl]-6-(naphthalen-2-yl)-4-oxo-3-(trifluoromethyl)-4,5-dihydropyrazolo[1,5-a]pyrazine-2-carboxamide] is 0.82 nM.
The figure for `Cc1c(C(=O)NC2(c3ccc(F)cc3)CN(C)C2)nn2cc(-c3ccc4ccccc4c3)[nH]c(=O)c12` [Example 1-35, N-[3-(4-Fluorophenyl)-1-methylazetidin-3-yl]-3-methyl-6-(naphthalen-2-yl)-4-oxo-4,5-dihydropyrazolo[1,5-a]pyrazine-2-carboxamide hydrochloride] is 4.25 nM.
The figure for `Cc1ccc(-c2cn3nc(C(=O)NCC(C)(N)C(F)(F)F)c(C(F)(F)F)c3c(=O)[nH]2)cc1Cl` (single isomer, unassigned) [6-170] is 2.1 nM; for `Cc1cc(-c2cn3nc(C(=O)NC4CC(F)(F)C4)c(C(F)(F)F)c3c(=O)[nH]2)ccc1Cl` [6-225] it is 7.4 nM; for `Cc1ccc(-c2cn3nc(C(=O)N[C@@H](c4ccc(F)cc4)C(C)(C)O)c(C)c3c(=O)[nH]2)c(F)c1C` [Example 1-164, 6-(2-Fluoro-3,4-dimethylphenyl)-N-[(15)-1-(4-fluorophenyl)-2-hydroxy-2-methylpropyl]-3-methyl-4-oxo-4,5-dihydropyrazolo[1,5-a]pyrazine-2-carboxamide] it is 2.9 nM.
Turning to `CC(NC(=O)c1cc2c(=O)[nH]c(-c3ccc4ccccc4c3)cn2n1)c1ccccc1OC(F)F` (centres unmarked) [Example 2-50, N-{1-[2-(Difluormethoxy)phenyl]ethyl}-6-(2-naphthyl)-4-oxo-4,5-dihydropyrazolo[1,5-a]pyrazine-2-carboxamide], the IC50 turned out to be 1.15 nM.
The figure for `O=C(NCc1ccccc1)c1cc2c(=O)[nH]c(-c3ccc4ccccc4c3)cn2n1` [6-16] is 4.16 nM; for `Cc1cc(-c2cn3nc(C(=O)N[C@@H](C)C4CC4)c(C4CC4(F)F)c3c(=O)[nH]2)ccc1Cl` (some centres unmarked) [6-550] it is 0.84 nM.
The figure for `CN1CC(NC(=O)c2nn3cc(-c4ccc5ccccc5c4)[nH]c(=O)c3c2Cl)(c2ccc(F)cc2)C1` [Example 1-119, 3-Chloro-N-[3-(4-fluorophenyl)-1-methylazetidin-3-yl]-6-(naphthalen-2-yl)-4-oxo-4,5-dihydropyrazolo[1,5-a]pyrazine-2-carboxamide] is 3.3 nM.
The figure for `CC(C)(C)OC(=O)NCC(NC(=O)c1cc2c(=O)[nH]c(-c3ccc4c(c3)OCCO4)cn2n1)c1ccc(F)cc1` (centres unmarked) [6-43] is 3.15 nM; for `Cc1cccc2ncc(-c3cn4nc(C(=O)NC(C)c5cccc(Br)c5)c(C(C)C)c4c(=O)[nH]3)cc12` (centres unmarked) [Example 4-62, N-[1-(3-Bromophenyl)ethyl]-3-isopropyl-6-(5-methyl-3-quinolyl)-4-oxo-5H-pyrazolo[1,5-a]pyrazine-2-carboxamide] it is 2.05 nM; for `Cc1cccc2ncc(-c3cn4nc(C(=O)NCC(C)(C)C)c(C(C)C)c4c(=O)[nH]3)cc12` [Example 4-33, N-(2,2-Dimethylpropyl)-6-(5-methylquinolin-3-yl)-4-oxo-3-(propan-2-yl)-4,5-dihydropyrazolo[1,5-a]pyrazine-2-carboxamide] it is 1.9 nM.
As to `Cc1cccc2ncc(-c3cn4nc(C(=O)N[C@H](C)c5ccccc5)c(C(C)C)c4c(=O)[nH]3)cc12` [Example 4-27, 6-(5-Methylquinolin-3-yl)-4-oxo-N-[(1R)-1-phenylethyl]-3-(propan-2-yl)-4,5-dihydropyrazolo[1,5-a]pyrazine-2-carboxamide], the IC50 came out at 1.2 nM.
To `Cc1cccc2ncc(-c3cn4nc(C(=O)NC5(c6ccccc6)CCCC5)c(C(C)C)c4c(=O)[nH]3)cc12` [Example 4-73, 6-(5-Methylquinolin-3-yl)-4-oxo-N-(1-phenylcyclopentyl)-3-(propan-2-yl)-4,5-dihydropyrazolo[1,5-a]pyrazine-2-carboxamide] belongs 2.35 nM; to `CCc1ccc(C(C)NC(=O)c2cc3c(=O)[nH]c(-c4ccc5ccccc5c4)cn3n2)cc1` (centres unmarked) [Example 2-39, N-[1-(4-Ethylphenyl)ethyl]-6-(2-naphthyl)-4-oxo-4,5-dihydropyrazolo[1,5-a]pyrazine-2-carboxamide], 3.7 nM.
To `Cc1c(C(=O)NCCn2ccc(C3CC3)n2)nn2c(C)c(-c3ccc4ccccc4c3)[nH]c(=O)c12` [Example 3-1, N-[2-(3-Cyclopropyl-1H-pyrazol-1-yl)ethyl]-3,7-dimethyl-6-(naphthalen-2-yl)-4-oxo-4,5-dihydropyrazolo[1,5-a]pyrazine-2-carboxamide] belongs 0.79 nM.
To `Cc1cccc2ncc(-c3cn4nc(C(=O)NCC5CNC(=O)O5)c(C(C)C)c4c(=O)[nH]3)cc12` (centres unmarked) [Example 4-42, 3-Isopropyl-6-(5-methyl-3-quinolyl)-4-oxo-N-[(2-oxooxazolidin-5-yl)methyl]-5H-pyrazolo[1,5-a]pyrazine-2-carboxamide] belongs 4.45 nM.
For the compound `Cc1ccc(-c2cn3nc(C(=O)N[C@H](CCO)c4ccccc4)cc3c(=O)[nH]2)cc1C` [Example 1-14, 6-(3,4-Dimethylphenyl)-N-[(1R)-3-hydroxy-1-phenylpropyl]-4-oxo-4,5-dihydropyrazolo[1,5-a]-pyrazine-2-carboxamide], the IC50 was 0.14 nM.
Take `Cc1ccc(-c2cn3nc(C(=O)NC(c4ccc(F)cc4)C(C)(C)O)c(C4CC4)c3c(=O)[nH]2)cc1F` (racemic) [6-402]: the IC50 worked out at 0.82 nM.
To `Cc1ccc(-c2cn3nc(C(=O)N[C@@H](c4ccc(F)cc4)C(C)(C)O)c(C)c3c(=O)[nH]2)nc1C` [6-634] belongs 3.7 nM; to `Cc1cccc2ncc(-c3cn4nc(C(=O)NC5Cc6ccccc6C5)c(C(C)C)c4c(=O)[nH]3)cc12` [Example 4-38, N-(2,3-Dihydro-1H-inden-2-yl)-6-(5-methylquinolin-3-yl)-4-oxo-3-(propan-2-yl)-4,5-dihydropyrazolo[1,5-a]pyrazine-2-carboxamide], 1.3 nM; to `Cc1ccc(-c2cn3nc(C(=O)N[C@@H](c4ccc(F)cc4)C(C)(C)O)c(C(F)(F)F)c3c(=O)[nH]2)cc1F` [Example 1-147, 6-(3-Fluoro-4-methylphenyl)-N-[(15)-1-(4-fluorophenyl)-2-hydroxy-2-methylpropyl]-4-oxo-3-(trifluoromethyl)-4,5-dihydropyrazolo[1,5-a]pyrazine-2-carboxamide], 2.9 nM.
To `CN1CC(NC(=O)c2nn3cc(-c4ccc(Cl)c(Cl)c4)[nH]c(=O)c3c2C2CC2)(c2ccc(F)cc2)C1` [Example 1-170, 3-Cyclopropyl-6-(3,4-dichlorophenyl)-N-[3-(4-fluorophenyl)-1-methylazetidin-3-yl]-4-oxo-4,5-dihydropyrazolo[1,5-a]pyrazine-2-carboxamide] belongs 2.5 nM; to `Cc1cc(-c2cn3nc(C(=O)N[C@@H](C)C4CC4)c(C4CCC4)c3c(=O)[nH]2)ccc1Cl` [6-618], 1 nM; to `Cc1ccc(-c2cn3nc(C(=O)NC(CN(C)C)c4ccc(F)cc4)c(C4CC4)c3c(=O)[nH]2)cc1C` (racemic) [6-444], 3.23 nM.

For orientation: IC50 means the point on the concentration scale where inhibition reaches its midpoint.
